Results taken from US9873693B2 (Sunesis Pharmaceuticals, Inc., priority 2006, dated 2018).
Like-named read-outs stand apart in the source and are kept apart here.

Assays:
[1] = test system: phospho-akt (Thr308); assay: phospho-akt (Thr308) MSD ELISA in PC-3 cells; type: cell-based; conditions: Homo sapiens; for EC50: PC-3, 2 h; for inhibition at 1 µM / inhibition at 10 µM: read-out: Percent Inhibition of phospho-Akt (308) By MSD ELISA
Description: PC-3 cells were harvested by trypsin and counted. Cells were plated in coated 96-well flat bottom plates (plate 15,000 cells/well in 100 ul growth media (10% FBS, 1× pen-strep) an place in an incubator overnight.
Subject inhibitors were stocked at 50 mM, then diluted to 30 mM (4.8 μl cpd plus […] DMSO) in 100% DMSO. Three-fold dilutions were performed from 30 mM stock. (4 μl into 8 ul 100% DMSO). Aliquots of 1.0 μl of inhibitor solution were transferred into SF Medium (using deep well block).
Control wells were prepared as follows. For DMSO high controls, 1.0 μl of 100% DMSO was added into 1.0 ml SF.
MSD plates were blocked for 1 hour by adding 150 μl of Blocking Solution (3% BSA) to each well. The MSD plates were washed 4× with TBST, and 50 μl lysates were transferred to MSD plate and place on plate shaker shake at 4 degrees O/N, light shaking (speed 3.5). The plate was washed 4× with TBST.
25 μl of Ab detection solution was added to each well. The plate was sealed and incubated 1 hr RT, light shaking (speed 3.5). The plate was washed 4 times with TBST. 150 μl of Read Buffer was added (5 mls 4×MSD Read Buffer+15 mls water). Finally the plate was read immediately on the MSD plate reader.

[2] = biological target: phosphorylated PDK1 (Homo sapiens (Human), UniProt O15530); assay: PDK1 kinase assay (coupled PDK1/AKT/FAM-crosstide, IMAP); type: biochemical; conditions: 0.5 nM phosphorylated PDK1, 24 μM ATP; read-out: Inhibition of phospo-PDK1 in vitro IC50
Chain of phosphorylated PDK1 (O15530 51-360): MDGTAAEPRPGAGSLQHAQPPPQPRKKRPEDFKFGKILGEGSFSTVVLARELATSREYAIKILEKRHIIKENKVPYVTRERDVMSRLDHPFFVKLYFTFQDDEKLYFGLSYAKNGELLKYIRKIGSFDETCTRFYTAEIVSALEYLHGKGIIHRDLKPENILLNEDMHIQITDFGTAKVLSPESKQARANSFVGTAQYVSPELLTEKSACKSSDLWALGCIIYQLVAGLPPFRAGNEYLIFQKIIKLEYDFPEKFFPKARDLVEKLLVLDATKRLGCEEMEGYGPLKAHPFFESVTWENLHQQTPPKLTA

[3] = PC-3 cells, 2 hours, no serum, read-out: Inhibition of P308 Akt in cells using MSD EC50
[4] = read-out: Inhibition of P308 Akt in cells using MSD EC50
[5] = PC-3 cells, 2 hours, no serum, read-out: Reduction of Cellular Levels of Akt p308 By MSD ELISA (EC50 μM)

Work on `O=C1Nc2cc(/C=C/CNC(=O)c3cc(Cl)cn(Cc4cc(F)c(F)c(F)c4)c3=O)ccc2/C1=C/c1ncc[nH]1` [Cpd 197] yielded an EC50 [1, 3] of less than 1 µM and an IC50 [2] of less than 0.5 µM.
Work on `N#Cc1cc(-c2c[nH]c3ncccc23)cc(CNC(=O)c2cccn(Cc3ccc(F)c(F)c3)c2=O)n1` [Cpd 191] yielded an EC50 [1, 4] of less than 1 µM and an IC50 [2] of less than 0.5 µM.
Molecule `O=C(NCc1cc(-c2c[nH]c3ncccc23)cc(CO)n1)c1cccn(Cc2ccc(F)c(F)c2)c1=O` [Cpd 196] has an EC50 [1, 3] of 1 to 5 µM and an IC50 [2] of less than 0.5 µM.
For `O=C(N[C@@H](COc1ccc2[nH]c(=O)[nH]c2c1F)c1ccccc1)c1cccn(Cc2cc(F)c(F)c(F)c2)c1=O` [Cpd 177], the EC50 [1, 3] was less than 1 µM and the IC50 [2] was less than 0.5 µM.
`O=C(NCc1cccc(-c2c[nH]c3ncc(Cl)cc23)c1)c1cccn(Cc2ccc(F)c(F)c2)c1=O` [Cpd 22] showed an EC50 [1, 3] of 1 to 5 µM, an EC50 [1, 5] of 1 to 5 µM and an IC50 [2] of less than 0.5 µM.
`O=C(NCc1cccc(-c2c[nH]c3nccnc23)c1)c1cccn(Cc2ccc(F)c(F)c2)c1=O` [Cpd 13] was tested, and the EC50 [1, 3] was 1 to 5 µM, the inhibition at 1 µM ([1]; PC-3 cells) was 25 to 75% and the inhibition at 10 µM ([1]; PC-3 cells) was greater than 75%. For the same molecule, the IC50 [2] was less than 0.5 µM.
`CNC(=O)c1cc(-c2c[nH]c3ncccc23)cc(CNC(=O)c2cccn(Cc3ccc(F)c(F)c3)c2=O)n1` [Cpd 180] showed an EC50 [1, 3] of less than 1 µM and an IC50 [2] of less than 0.5 µM.
`CNC(=O)c1cnc2[nH]cc(-c3ccc(CNC(=O)c4cccn(Cc5ccc(F)c(F)c5)c4=O)s3)c2c1` [Cpd 40] was tested, and the EC50 [1, 3] was 1 to 5 µM, the EC50 [1, 5] was 1 to 5 µM and the IC50 [2] was less than 0.5 µM.
In the case of `O=C1Nc2cc(/C=C/CNC(=O)c3cccn(Cc4cc(F)c(F)c(F)c4)c3=O)ccc2/C1=C\c1cccnc1` [Cpd 194], the EC50 [1, 3] is reported as less than 1 µM and the IC50 [2] is reported as less than 0.5 µM.
Work on `CCCNC(=O)c1cnc2[nH]cc(-c3cccc(CNC(=O)c4cccn(Cc5ccc(F)c(F)c5)c4=O)c3)c2c1` [Cpd 29] yielded an EC50 [1, 3] of less than 1 µM, an EC50 [1, 5] of less than 1 µM and an IC50 [2] of less than 0.5 µM.
With `O=C(NCc1noc(-c2c[nH]c3ncccc23)n1)c1cccn(Cc2ccc(Cl)c(Cl)c2)c1=O` [Cpd 312] the EC50 [1, 3] was 1 to 5 µM, the inhibition at 1 µM ([1]; PC-3 cells) was 25 to 75% and the inhibition at 10 µM ([1]; PC-3 cells) was greater than 75%. It also gave an IC50 [2] of less than 0.5 µM.
In the case of `Nc1ncccc1-c1ccc(CNC(=O)c2cccn(Cc3ccc(F)c(F)c3)c2=O)s1` [Cpd 97], the EC50 [1, 3] is reported as 1 to 5 µM and the IC50 [2] is reported as less than 0.5 µM.
In the case of `O=C1Nc2cc(/C=C/CNC(=O)c3cccn(Cc4cc(F)c(F)c(F)c4)c3=O)ccc2/C1=C/c1nccs1` [Cpd 203], the EC50 [1, 3] is reported as 1 to 5 µM and the IC50 [2] is reported as less than 0.5 µM.
`O=C1Nc2cc(/C=C/CNC(=O)c3cccn(Cc4cc(F)c(F)c(F)c4)c3=O)ccc2/C1=C\c1ccccc1` [Cpd 209] was tested, and the EC50 [1, 3] was greater than 5 µM and the IC50 [2] was less than 0.5 µM.
`CN(C)CCOc1cc(CNC(=O)c2cccn(Cc3ccc(F)c(F)c3)c2=O)cc(-c2c[nH]c3ncccc23)c1` [Cpd 60] gave an EC50 [1, 3] of 1 to 5 µM and an IC50 [2] of less than 0.5 µM.
Molecule `O=C(NCc1noc(-c2c[nH]c3ncccc23)n1)c1cc([N+](=O)[O-])cn(Cc2cc(F)c(F)c(F)c2)c1=O` [Cpd 184] has an EC50 [1, 3] of 1 to 5 µM and an IC50 [2] of less than 0.5 µM.
Work on `NC(=O)c1cnc2[nH]cc(-c3cccc(CNC(=O)c4cccn(Cc5ccc(F)c(F)c5)c4=O)c3)c2c1` [Cpd 26] yielded an EC50 [1, 3] of less than 1 µM, an EC50 [1, 5] of less than 1 µM and an IC50 [2] of less than 0.5 µM.
With `O=C(NCc1ccnc(-c2c[nH]c3ncccc23)c1)c1cccn(Cc2ccc(F)c(F)c2)c1=O` [Cpd 285] the EC50 [1, 3] was 1 to 5 µM, the EC50 [1, 5] was 1 to 5 µM and the IC50 [2] was less than 0.5 µM.
`O=C(NCc1cccc(-c2c[nH]c3ncc(-c4ccoc4)cc23)c1)c1cccn(Cc2ccc(F)c(F)c2)c1=O` [Cpd 53] showed an EC50 [1, 3] of less than 1 µM and an IC50 [2] of less than 0.5 µM.
For `O=C(NCc1cccc(-c2c[nH]c3ncc(Br)cc23)c1)c1cccn(Cc2ccc(F)c(F)c2)c1=O` [Cpd 330], the EC50 [1, 3] was 1 to 5 µM and the IC50 [2] was less than 0.5 µM.
Work on `O=C(N[C@H](CO)c1nnc(-c2c[nH]c3ncccc23)o1)c1cccn(Cc2ccc(F)c(F)c2)c1=O` [Cpd 284] yielded an EC50 [1, 3] of 1 to 5 µM, an EC50 [1, 5] of 1 to 5 µM and an IC50 [2] of less than 0.5 µM.
In the case of `C[C@@H](c1ccc(Cl)cc1)n1cc(Cl)cc(C(=O)NCc2noc(-c3c[nH]c4ncccc34)n2)c1=O` [Cpd 315], the EC50 [1, 3] is reported as less than 1 µM, the inhibition at 1 µM ([1]; PC-3 cells) is reported as 25 to 75% and the inhibition at 10 µM ([1]; PC-3 cells) is reported as greater than 75%. For the same molecule, the IC50 [2] was less than 0.5 µM.
`CC(C)Oc1cc(CNC(=O)c2cccn(Cc3ccc(F)c(F)c3)c2=O)cc(-c2c[nH]c3ncccc23)c1` [Cpd 25] showed an EC50 [1, 4] of less than 1 µM, an EC50 ([1]; read-out: Reduction of Cellular Levels of Akt p308 By MSD ELISA (EC50 μM)) of less than 1 µM and an IC50 [2] of less than 0.5 µM.
`O=C(NCc1cccc(-c2c[nH]c3nccc(Cl)c23)c1)c1cccn(Cc2ccc(F)c(F)c2)c1=O` [Cpd 50] showed an EC50 [1, 3] of 1 to 5 µM and an IC50 [2] of less than 0.5 µM.
`O=C(O)c1cnc2[nH]cc(-c3cccc(CNC(=O)c4cccn(Cc5ccc(F)c(F)c5)c4=O)c3)c2c1` [Cpd 20] was tested, and the EC50 [1, 5] was greater than 5 µM and the IC50 [2] was less than 0.5 µM.
Work on `O=C1Nc2cc(/C=C/CNC(=O)c3cccn(Cc4cc(F)c(F)c(F)c4)c3=O)ccc2/C1=C\c1nccs1` [Cpd 202] yielded an EC50 [1, 3] of 1 to 5 µM and an IC50 [2] of less than 0.5 µM.
`O=C(NCc1cc(O)cc(-c2c[nH]c3ncccc23)c1)c1cccn(Cc2ccc(F)c(F)c2)c1=O` [Cpd 49] showed an EC50 [1, 3] of 1 to 5 µM and an IC50 [2] of less than 0.5 µM.
For `O=C(NCc1cccc(-c2c[nH]c3ncccc23)c1)c1cccn(Cc2ccc(F)c(F)c2)c1=O` [Cpd 126], the EC50 [1, 3] was 1 to 5 µM, the EC50 [1, 5] was less than 1 µM and the IC50 [2] was less than 0.5 µM.
`COC(=O)[C@H](COc1ccc2[nH]c(=O)[nH]c2c1)NC(=O)c1cccn(Cc2cc(F)c(F)c(F)c2)c1=O` [Cpd 153] was tested, and the EC50 [1, 3] was less than 1 µM and the IC50 [2] was less than 0.5 µM.
For `NCc1cnc2[nH]cc(-c3cccc(CNC(=O)c4cccn(Cc5ccc(F)c(F)c5)c4=O)c3)c2c1` [Cpd 243], the EC50 [1, 3] was less than 1 µM, the EC50 [1, 5] was 1 to 5 µM and the IC50 [2] was less than 0.5 µM.
`O=C(C[C@@H](NC(=O)c1cccn(Cc2ccc(F)c(F)c2)c1=O)c1ccc(-c2c[nH]c3ncccc23)s1)NC1CC1` [Cpd 33] was tested, and the EC50 [1, 3] was 1 to 5 µM, the EC50 [1, 5] was 1 to 5 µM and the IC50 [2] was less than 0.5 µM.
In the case of `CN(C)C(=O)c1cc(-c2c[nH]c3ncccc23)cc(CNC(=O)c2cccn(Cc3ccc(F)c(F)c3)c2=O)n1` [Cpd 181], the EC50 [1, 3] is reported as 1 to 5 µM and the IC50 [2] is reported as less than 0.5 µM.
With `O=C1Nc2cc(/C=C/CNC(=O)c3cccn(Cc4cc(F)c(F)c(F)c4)c3=O)ccc2/C1=C/c1cccs1` [Cpd 198] the EC50 [1, 3] was 1 to 5 µM and the IC50 [2] was less than 0.5 µM.
Molecule `CNC(=O)c1cnc2[nH]cc(-c3cccc(CNC(=O)c4cccn(Cc5ccc(F)c(F)c5)c4=O)c3)c2c1` [Cpd 239] has an EC50 [1, 3] of 1 to 5 µM, an EC50 [1, 5] of less than 1 µM and an IC50 [2] of less than 0.5 µM.
For `NC(=O)c1cnc2[nH]cc(-c3ccc(CNC(=O)c4cccn(Cc5ccc(F)c(F)c5)c4=O)s3)c2c1` [Cpd 39], the EC50 [1, 3] was less than 1 µM, the EC50 [1, 5] was less than 1 µM and the IC50 [2] was less than 0.5 µM.
`N#Cc1cnc2[nH]cc(-c3cccc(CNC(=O)c4cccn(Cc5ccc(F)c(F)c5)c4=O)c3)c2c1` [Cpd 244] gave an EC50 [1, 3] of less than 1 µM, an EC50 [1, 5] of less than 1 µM and an IC50 [2] of less than 0.5 µM.
Molecule `O=C(Nc1n[nH]c2ccc(-c3c[nH]c4ncccc34)cc12)c1cccn(Cc2ccc(F)c(F)c2)c1=O` [Cpd 245] has an EC50 [1, 3] of 1 to 5 µM and an IC50 [2] of less than 0.5 µM.
With `O=C(NC(COc1ccc2[nH]c(=O)[nH]c2c1)c1ccc(OCc2ccccc2)cc1)c1cccn(Cc2cc(F)c(F)c(F)c2)c1=O` (centres unmarked) [Cpd 186] the EC50 [1, 4] was greater than 5 µM and the IC50 [2] was less than 0.5 µM.
`CCNC(=O)C[C@@H](NC(=O)c1cccn(Cc2ccc(F)c(F)c2)c1=O)c1ccc(-c2c[nH]c3ncccc23)s1` [Cpd 31] showed an EC50 [1, 3] of 1 to 5 µM, an EC50 [1, 5] of 1 to 5 µM and an IC50 [2] of less than 0.5 µM.
In the case of `O=C(NCc1cccc(-c2c[nH]c3ncc(-c4cccnc4)cc23)c1)c1cccn(Cc2ccc(F)c(F)c2)c1=O` [Cpd 47], the EC50 [1, 3] is reported as less than 1 µM and the IC50 [2] is reported as less than 0.5 µM.
Molecule `O=C(O)c1cnc2[nH]cc(-c3cccc(CNC(=O)c4cccn(-c5cccc(F)c5F)c4=O)c3)c2c1` [Cpd 238] has an IC50 [2] of less than 0.5 µM.
